Experimental data: ChEMBL document CHEMBL1156419, “Inhibition of metalloprotease botulinum serotype A from a pseudo-peptide binding mode to a small molecule that is active in primary neurons” (J Biol Chem, 2007)
Where a SMILES comes first, the peptide text is derived from it. The star is where a group is joined. Propanoyl(2S-SH,3-Ph) = O=C([C@@H](S)Cc1ccccc1)*; X1 = O=C([C@H](S)Cc1ccccc1)*

Key:
[1] = target: Botulinum neurotoxin type A (Clostridium botulinum (strain Hall / ATCC 3502 / NCTC 13319 / Type A), UniProt P0DPI1); test: Inhibition of BoNT/A light chain metalloprotease activity
Chain of Botulinum neurotoxin type A (P0DPI1 2-448 limits assumed): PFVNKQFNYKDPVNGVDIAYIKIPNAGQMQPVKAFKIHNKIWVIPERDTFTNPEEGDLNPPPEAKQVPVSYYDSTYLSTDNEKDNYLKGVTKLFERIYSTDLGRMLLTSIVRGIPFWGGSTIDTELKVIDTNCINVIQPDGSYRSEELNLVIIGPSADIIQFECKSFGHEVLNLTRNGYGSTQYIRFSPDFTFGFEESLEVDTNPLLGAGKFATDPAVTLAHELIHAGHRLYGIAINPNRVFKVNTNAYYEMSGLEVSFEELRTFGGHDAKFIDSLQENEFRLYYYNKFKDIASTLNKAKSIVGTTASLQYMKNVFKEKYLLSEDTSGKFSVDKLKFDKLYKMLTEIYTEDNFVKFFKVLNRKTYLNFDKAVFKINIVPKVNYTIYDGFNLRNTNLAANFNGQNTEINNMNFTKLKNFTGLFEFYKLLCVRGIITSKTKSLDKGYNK

[2] = Cytotoxicity in embryonic chicken spinal neurons at 1 to 5 uM after 3.5 hrs; set-up: species or system Gallus gallus

Compound | Ki [1] | Activity [2]
N=C(N)c1ccc2oc(/C=C/C=C/C=C/c3cc4cc(C(=N)N)ccc4o3)cc2c1 | 6 µM | Toxic
N=C(N)N/N=C/c1ccc(-c2cc3ccc(/C=N/NC(=N)N)cc3s2)cc1 | 3 µM | Toxic
C(=C\c1cc2ccc(C3=NCCN3)cc2[nH]1)/c1ccc2cc(C3=NCCN3)[nH]c2c1 | 10 µM | 
NC(N)=NCCC[C@H](NC(=O)[C@@H](S)Cc1ccccc1)C(=O)O | 60 µM | 
C[C@H](NC(=O)[C@H](CCCNC(=N)N)NC(=O)[C@@H](S)Cc1ccccc1)C(=O)O | 60 µM | 
C[C@H](NC(=O)[C@H](CCCNC(=N)N)NC(=O)[C@@H](S)Cc1ccccc1)C(=O)N[C@H](C(=O)O)[C@@H](C)O | 30 µM | 
CSCC[C@H](NC(=O)[C@H](CCCCN)NC(=O)[C@@H](NC(=O)[C@H](C)NC(=O)[C@H](CCCNC(=N)N)NC(=O)[C@@H](N)CS)[C@@H](C)O)C(=O)N[C@@H](CC(C)C)C(=O)O (H-CRATKML-OH) | 2 µM | 
CSCC[C@H](NC(=O)[C@H](CCCCN)NC(=O)[C@@H](NC(=O)[C@H](C)NC(=O)[C@H](CCCNC(=N)N)NC(=O)[C@H](S)Cc1ccccc1)[C@@H](C)O)C(=O)N[C@@H](CC(C)C)C(=O)O (X1-RATKML-OH) | 8 µM | 
CSCC[C@H](NC(=O)[C@H](CCCCN)NC(=O)[C@@H](NC(=O)[C@H](C)NC(=O)[C@H](CCCCN)NC(=O)[C@@H](S)Cc1ccccc1)[C@@H](C)O)C(=O)N[C@@H](CC(C)C)C(=O)O ({Propanoyl(2S-SH,3-Ph)}-KATKML-OH) | > 300 µM | 
CSCC[C@H](NC(=O)[C@H](CCCCN)NC(=O)[C@H](C)NC(=O)[C@H](C)NC(=O)[C@H](CCCNC(=N)N)NC(=O)[C@@H](S)Cc1ccccc1)C(=O)N[C@@H](CC(C)C)C(=O)O ({Propanoyl(2S-SH,3-Ph)}-RAAKML-OH) | 0.7 µM | 
CSCC[C@H](NC(=O)[C@H](C)NC(=O)[C@@H](NC(=O)[C@H](C)NC(=O)[C@H](CCCN=C(N)N)NC(=O)[C@@H](S)Cc1ccccc1)[C@@H](C)O)C(=O)N[C@@H](CC(C)C)C(=O)O ({Propanoyl(2S-SH,3-Ph)}-RATAML-OH) | 3 µM | 
C[C@H](NC(=O)[C@H](CCCNC(=N)N)NC(=O)[C@@H](S)Cc1ccccc1)C(=O)N[C@H](C(=O)N[C@@H](CCCCN)C(=O)O)[C@@H](C)O ({Propanoyl(2S-SH,3-Ph)}-RATK-OH) | 4 µM | 
CC(C)C[C@H](NC(=O)[C@H](C)NC(=O)[C@H](CCCCN)NC(=O)[C@@H](NC(=O)[C@H](C)NC(=O)[C@H](CCCNC(=N)N)NC(=O)[C@@H](S)Cc1ccccc1)[C@@H](C)O)C(=O)O ({Propanoyl(2S-SH,3-Ph)}-RATKAL-OH) | 0.7 µM | 
CSCC[C@H](NC(=O)[C@H](CCCCN)NC(=O)[C@@H](NC(=O)[C@H](C)NC(=O)[C@H](CCCN=C(N)N)NC(=O)[C@@H](S)Cc1ccccc1)[C@@H](C)O)C(=O)O ({Propanoyl(2S-SH,3-Ph)}-RATKM-OH) | 0.4 µM | 
CSCC[C@H](NC(=O)[C@H](CCCCN)NC(=O)[C@@H](NC(=O)[C@H](C)NC(=O)[C@H](CCCNC(=N)N)NC(=O)[C@@H](S)Cc1ccccc1)[C@@H](C)O)C(=O)N[C@@H](CC(C)C)C(=O)O ({Propanoyl(2S-SH,3-Ph)}-RATKML-OH) | 0.3 µM | 
CSCC[C@H](NC(=O)[C@H](CCCCN)NC(=O)[C@@H](NC(=O)[C@H](C)NC(=O)[C@H](CCCNC(=N)N)NC(=O)[C@@H](S)Cc1ccccc1)[C@@H](C)O)C(=O)N[C@@H](CC(C)C)C(=O)NCC(=O)N[C@@H](CO)C(=O)NCC(=O)O ({Propanoyl(2S-SH,3-Ph)}-RATKMLGSG-OH) | 0.3 µM | 
CSCC[C@H](NC(=O)[C@H](CCCCN)NC(=O)[C@@H](NC(=O)[C@@H](NC(=O)[C@H](CCCN=C(N)N)NC(=O)[C@@H](S)Cc1ccccc1)C(C)C)[C@@H](C)O)C(=O)N[C@@H](CC(C)C)C(=O)O ({Propanoyl(2S-SH,3-Ph)}-RVTKML-OH) | 2 µM | 
